Laboratory results: US7282593B2, “Withanamide and withanolide compositions and method of use thereof” (Board of Trustees of Michigan State University, priority 2003, dated 2007)

What follows are molecules tested on lipid peroxidation in large unilamellar vesicles (LUVs) (assay: Inhibition of lipid peroxidation in large unilamellar vesicles (liposome) model system). Conditions: at 0.5 μg/mL; vs DMSO control at 21 min.
Experimental: Fluorescence intensity was monitored for 21 minutes at intervals of 3 minutes. The percentage of inhibition represented was calculated with respect to DMSO control at 21 min. The concentrations of compounds tested were 1-3, 5 and 9 at 1 μg/mL; 4, 6-8 at 0.5 μg/mL; 15 at 100 μg/mL; 16 at 50 μg/mL; 17 at 10 μg/mL. Commercial antioxidants BHA, BHT and TBHQ were tested at 1 μg/mL. Data represented indicates the mean ± one standard deviation (n=2).
Compounds tested were 10 and 13 at 100 μg/mL; 12 and 11 were at 10 and 50 μg/mL, respectively. Data represented indicates the mean ± one standard deviation (n=2).
The liposome suspension was prepared by mixing the phospholipid 1-stearoyl-2-linoleoyl-sn-glycero-3-phosphocoline (SLPC) and a fluorescence probe [3-[p-(6-phenyl)-1,3,5-hexatrienylph-enylpropionic acid (DPH-PA). The final assay volume was 2 mL and consisted HEPES (100 μL), 1M NaCl (200 μL), N2-sparged water (1.64 ml), test sample or DMSO (20 μL) and liposome suspension (20 μL). The peroxidation was initiated by the addition of 20 μl of FeCl2. […] The fluorescence was monitored at 0, 1, 3 and every 3 min up to 21 min using a Turner Model 450 Digital fluorometer. The decrease in fluorescence intensity over the time (21 min) indicated the rate of peroxidation. The percentage of lipid peroxidation was calculated with respect to DMSO solvent control. Stock solutions of the samples were prepared at 100 μg/ml and diluted further for the assay.

Question: For Withanamide F [Compound 6], which “inhibition of lipid peroxidation” value is on record?
Answer: 85%

Question: With Withanamide G [Compound 7] as the molecule, how does the “inhibition of lipid peroxidation” value read?
Answer: 82%

Question: For Withanamide H [Compound 8], which “inhibition of lipid peroxidation” value is on record?
Answer: 90%

Same assay, conditions: at 1 μg/mL; vs DMSO control at 21 min

Question: For `COc1ccc(O)c(C(C)(C)C)c1` [BHA, butylated hydroxyanisole, reference compound], which “inhibition of lipid peroxidation” value is on record?
Answer: 80%

Question: How did the “inhibition of lipid peroxidation” value turn out when `Cc1cc(C(C)(C)C)c(O)c(C(C)(C)C)c1` [BHT, butylated hydroxytoluene, reference compound] was run?
Answer: 81%

Question: For `CC(C)(C)c1cc(O)ccc1O` [TBHQ, tert-butylhydroquinone, reference compound], which “inhibition of lipid peroxidation” value is on record?
Answer: 85%

Question: Withanamide A [Compound 1] was tested. Which “inhibition of lipid peroxidation” value did it give?
Answer: 98%

Question: With Withanamide B [Compound 2] as the molecule, how does the “inhibition of lipid peroxidation” value read?
Answer: 93%

Question: With Withanamide C [Compound 3] as the molecule, how does the “inhibition of lipid peroxidation” value read?
Answer: 79%

Question: Withanamide D [Compound 4] was tested. Which “inhibition of lipid peroxidation” value did it give?
Answer: 94%

Question: Which “inhibition of lipid peroxidation” value does the source give for Withanamide E [Compound 5] here?
Answer: 81%

Question: For Withanamide I [Compound 9], which “inhibition of lipid peroxidation” value is on record?
Answer: 86%

Same assay, conditions: at 10 μg/mL; vs DMSO control at 21 min

Question: Which “inhibition of lipid peroxidation” value does the source give for `CC1=C(C)C(=O)O[C@@H]([C@@H](C)[C@H]2CC[C@H]3[C@@H]4CC=C5C[C@@H](O[C@@H]6O[C@H](CO[C@@H]7O[C@H](CO)[C@@H](O)[C@H](O)[C@H]7O)[C@@H](O)[C@H](O)[C@H]6O)C[C@H](O)[C@]5(C)[C@H]4CC[C@]23C)C1` [Compound 12, Withanoside V] here?
Answer: 82%

Question: Which “inhibition of lipid peroxidation” value does the source give for `Cl.NCCc1c[nH]c2ccc(O)cc12` [Compound 16, serotonine, reference compound] here?
Answer: 44%

Same assay, conditions: at 50 μg/mL; vs DMSO control at 21 min

Question: For `CC1=C(C)C(=O)O[C@@H]([C@](C)(O)[C@H]2CC[C@H]3[C@@H]4CC=C5C[C@@H](O[C@@H]6O[C@H](CO[C@@H]7O[C@H](CO)[C@@H](O)[C@H](O)[C@H]7O)[C@@H](O)[C@H](O)[C@H]6O)C[C@H](O)[C@]5(C)[C@H]4CC[C@]23C)C1` [Compound 11, withanoside VI], which “inhibition of lipid peroxidation” value is on record?
Answer: 86%

Question: For `COc1ccc2[nH]cc(CCN)c2c1` [Compound 15, 5-methoxyserotonine, reference compound], which “inhibition of lipid peroxidation” value is on record?
Answer: 30%

Same assay, conditions: at 100 μg/mL; vs DMSO control at 21 min

Question: With `CC1CC([C@](C)(O)C2CCC3C4CC=C5C[C@@H](OC6OC(COC7OC(CO)C(O)C(O)C7O)C(O)C(O)C6O)C[C@H](O)C5(C)C4CCC32C)OC(=O)C1C` (stereo partly drawn) [Compound 10, 23,24-Dihydrowithanolide VI] as the molecule, how does the “inhibition of lipid peroxidation” value read?
Answer: 84%

Question: With `CC1=C(CO)C(=O)O[C@@H]([C@@H](C)[C@H]2CC[C@H]3[C@@H]4CC=C5C[C@@H](O[C@@H]6O[C@H](CO[C@@H]7O[C@H](CO)[C@@H](O)[C@H](O)[C@H]7O)[C@@H](O)[C@H](O)[C@H]6O)C[C@H](O)[C@]5(C)[C@H]4CC[C@]23C)C1` [Compound 13, withanoside IV] as the molecule, how does the “inhibition of lipid peroxidation” value read?
Answer: 25%

Question: With `NCCc1c[nH]c2ccccc12` [Compound 14, tryptamine, reference compound] as the molecule, how does the “inhibition of lipid peroxidation” value read?
Answer: 40%

Same assay, conditions: at 10 ppm

Question: `CC1=C(C)C(=O)O[C@@H]([C@@H](C)[C@H]2CC[C@H]3[C@@H]4CC=C5C[C@@H](O[C@@H]6O[C@H](CO[C@@H]7O[C@H](CO)[C@@H](O)[C@H](O)[C@H]7O)[C@@H](O)[C@H](O)[C@H]6O)C[C@H](O)[C@]5(C)[C@H]4CC[C@]23C)C1` [Compound 12, Withanoside V] was tested. Which “inhibition of lipid peroxidation” value did it give?
Answer: 82.5%

Same assay, conditions: at 50 ppm

Question: `CC1=C(C)C(=O)O[C@@H]([C@](C)(O)[C@H]2CC[C@H]3[C@@H]4CC=C5C[C@@H](O[C@@H]6O[C@H](CO[C@@H]7O[C@H](CO)[C@@H](O)[C@H](O)[C@H]7O)[C@@H](O)[C@H](O)[C@H]6O)C[C@H](O)[C@]5(C)[C@H]4CC[C@]23C)C1` [Compound 11, withanoside VI] was tested. Which “lipid peroxidation inhibitory activity” value did it give?
Answer: 86%
